Experimental data from patent US20220009920A1 (GB005, Inc., priority 2020, published 2022).

Key:
Test in all cases: Large panel kinase profiling
Type in all cases: biochemical
Conditions in all cases: 1 μM test article, 1 mM ATP
PRKCZ/PKCZ = target: T1, PRKCZ/PKCZ (Homo sapiens, UniProt Q05513)
T1 sequence (Q05513 1-592): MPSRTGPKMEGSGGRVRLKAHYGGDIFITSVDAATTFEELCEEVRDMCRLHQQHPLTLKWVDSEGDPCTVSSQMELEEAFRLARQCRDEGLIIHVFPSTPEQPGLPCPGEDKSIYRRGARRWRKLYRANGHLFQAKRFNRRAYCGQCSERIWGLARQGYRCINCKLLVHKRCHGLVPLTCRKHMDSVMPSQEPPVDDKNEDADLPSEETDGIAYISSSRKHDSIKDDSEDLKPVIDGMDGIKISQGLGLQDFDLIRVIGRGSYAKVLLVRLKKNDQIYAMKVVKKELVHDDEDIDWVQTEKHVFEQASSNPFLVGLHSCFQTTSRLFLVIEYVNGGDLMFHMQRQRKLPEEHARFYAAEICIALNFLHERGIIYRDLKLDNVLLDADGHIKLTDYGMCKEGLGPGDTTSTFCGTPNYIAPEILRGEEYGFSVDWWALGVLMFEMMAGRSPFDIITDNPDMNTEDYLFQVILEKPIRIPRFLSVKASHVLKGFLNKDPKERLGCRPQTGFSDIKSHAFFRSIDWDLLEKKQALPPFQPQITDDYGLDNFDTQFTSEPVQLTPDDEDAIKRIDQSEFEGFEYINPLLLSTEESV
Method in brief: (§1)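 With ATP fixed at 1 mM, each kinase was exposed to 1 μM compound in a PhosphoSens CSox-Sensor reaction. Sealed plates were incubated at 30° C. and read in kinetic mode.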

BRAF(V599E) = BRAF(V599E) (Homo sapiens, UniProt P15056, V600E)
Method in brief: as §1

PRKACB = PRKACB (Homo sapiens, UniProt P22694)
Method in brief: as §1

PKN3 = PKN3 (Homo sapiens, UniProt Q6P5Z2)
Method in brief: as §1

SYK = target: T2, SYK (Homo sapiens, UniProt P43405)
T2 construct: AssayQuant Technologies, Inc. (contract assay)
Method in brief: as §1

LATS1 = target: T3, LATS1 (Homo sapiens, UniProt O95835)
T3 sequence (O95835 1-1130): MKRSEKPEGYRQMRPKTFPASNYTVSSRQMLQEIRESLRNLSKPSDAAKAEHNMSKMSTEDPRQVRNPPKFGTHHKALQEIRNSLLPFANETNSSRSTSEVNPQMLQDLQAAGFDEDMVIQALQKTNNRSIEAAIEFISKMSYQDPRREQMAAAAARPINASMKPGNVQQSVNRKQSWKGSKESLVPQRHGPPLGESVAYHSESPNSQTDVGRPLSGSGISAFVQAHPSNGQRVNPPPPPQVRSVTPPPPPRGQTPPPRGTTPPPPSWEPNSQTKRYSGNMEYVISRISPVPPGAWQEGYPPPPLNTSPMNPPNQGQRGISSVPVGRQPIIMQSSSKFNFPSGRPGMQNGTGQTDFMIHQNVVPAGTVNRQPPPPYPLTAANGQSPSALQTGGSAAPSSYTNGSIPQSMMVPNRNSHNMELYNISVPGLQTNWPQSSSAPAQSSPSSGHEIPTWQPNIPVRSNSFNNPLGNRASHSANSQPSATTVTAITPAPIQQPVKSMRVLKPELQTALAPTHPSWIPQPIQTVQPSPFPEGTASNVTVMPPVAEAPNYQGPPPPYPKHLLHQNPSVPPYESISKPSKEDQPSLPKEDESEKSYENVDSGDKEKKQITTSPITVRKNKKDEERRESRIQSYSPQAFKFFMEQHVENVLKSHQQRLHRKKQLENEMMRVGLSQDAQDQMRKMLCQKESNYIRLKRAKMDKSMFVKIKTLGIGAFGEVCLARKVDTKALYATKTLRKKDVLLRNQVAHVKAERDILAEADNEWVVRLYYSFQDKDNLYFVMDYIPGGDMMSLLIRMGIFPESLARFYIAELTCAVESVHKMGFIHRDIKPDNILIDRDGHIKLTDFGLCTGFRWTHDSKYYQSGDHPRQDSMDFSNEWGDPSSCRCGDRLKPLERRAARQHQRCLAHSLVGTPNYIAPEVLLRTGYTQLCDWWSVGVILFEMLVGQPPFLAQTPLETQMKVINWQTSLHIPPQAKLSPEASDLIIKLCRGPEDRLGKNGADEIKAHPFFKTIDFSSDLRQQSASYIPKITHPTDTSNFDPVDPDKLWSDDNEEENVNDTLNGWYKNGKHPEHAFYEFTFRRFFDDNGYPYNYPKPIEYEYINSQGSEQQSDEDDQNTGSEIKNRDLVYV
Method in brief: as §1

CDK3/E1 = target: T4, CDK3/E1 (Homo sapiens, UniProt Q00526)
T4 construct: AssayQuant Technologies, Inc. (ran the panel)
Method in brief: as §1

T4 sequence (Q00526 whole entry, species assumed): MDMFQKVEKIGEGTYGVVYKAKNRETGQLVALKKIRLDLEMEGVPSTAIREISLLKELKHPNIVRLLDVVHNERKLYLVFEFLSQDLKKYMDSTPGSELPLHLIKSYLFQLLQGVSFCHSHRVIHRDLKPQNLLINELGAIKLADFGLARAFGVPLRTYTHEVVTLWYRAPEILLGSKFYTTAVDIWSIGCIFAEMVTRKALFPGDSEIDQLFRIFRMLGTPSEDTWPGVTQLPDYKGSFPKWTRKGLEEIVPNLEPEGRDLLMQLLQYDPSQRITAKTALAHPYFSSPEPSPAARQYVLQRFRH
T4 sequence (P24864 whole entry partner, species assumed): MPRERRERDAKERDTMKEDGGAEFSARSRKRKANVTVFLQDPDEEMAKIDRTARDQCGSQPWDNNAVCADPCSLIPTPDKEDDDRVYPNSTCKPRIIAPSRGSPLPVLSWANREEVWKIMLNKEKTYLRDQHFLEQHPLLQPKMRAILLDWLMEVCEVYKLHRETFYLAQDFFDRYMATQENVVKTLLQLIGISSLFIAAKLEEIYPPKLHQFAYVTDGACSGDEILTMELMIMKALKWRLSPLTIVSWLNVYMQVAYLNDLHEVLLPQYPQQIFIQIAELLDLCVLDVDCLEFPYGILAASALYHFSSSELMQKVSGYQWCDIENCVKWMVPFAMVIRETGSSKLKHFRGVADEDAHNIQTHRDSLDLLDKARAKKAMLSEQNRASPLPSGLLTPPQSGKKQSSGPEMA
Sequence of BRAF(V599E) (P15056 whole entry V600E): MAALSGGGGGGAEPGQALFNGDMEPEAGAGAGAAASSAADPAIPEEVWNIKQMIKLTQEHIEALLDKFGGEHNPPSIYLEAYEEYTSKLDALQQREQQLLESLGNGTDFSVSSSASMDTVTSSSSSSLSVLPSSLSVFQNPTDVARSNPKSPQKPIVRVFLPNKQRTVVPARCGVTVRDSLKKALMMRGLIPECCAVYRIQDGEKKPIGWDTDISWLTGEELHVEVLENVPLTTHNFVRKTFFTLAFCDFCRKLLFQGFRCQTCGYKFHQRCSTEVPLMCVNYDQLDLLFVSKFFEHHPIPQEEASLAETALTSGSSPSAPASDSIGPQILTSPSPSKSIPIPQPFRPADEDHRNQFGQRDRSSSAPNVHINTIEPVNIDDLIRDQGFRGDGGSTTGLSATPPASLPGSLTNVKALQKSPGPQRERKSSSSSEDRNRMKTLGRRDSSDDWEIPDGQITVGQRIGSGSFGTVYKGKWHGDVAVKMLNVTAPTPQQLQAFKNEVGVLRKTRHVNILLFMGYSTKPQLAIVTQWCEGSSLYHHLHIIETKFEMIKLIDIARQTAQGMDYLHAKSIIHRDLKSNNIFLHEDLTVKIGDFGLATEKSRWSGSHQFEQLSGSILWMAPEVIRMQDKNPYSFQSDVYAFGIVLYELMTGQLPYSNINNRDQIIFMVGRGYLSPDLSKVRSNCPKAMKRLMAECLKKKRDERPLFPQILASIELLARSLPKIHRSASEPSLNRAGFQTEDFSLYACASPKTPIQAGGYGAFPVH
Sequence of PKN3 (Q6P5Z2 whole entry, species assumed): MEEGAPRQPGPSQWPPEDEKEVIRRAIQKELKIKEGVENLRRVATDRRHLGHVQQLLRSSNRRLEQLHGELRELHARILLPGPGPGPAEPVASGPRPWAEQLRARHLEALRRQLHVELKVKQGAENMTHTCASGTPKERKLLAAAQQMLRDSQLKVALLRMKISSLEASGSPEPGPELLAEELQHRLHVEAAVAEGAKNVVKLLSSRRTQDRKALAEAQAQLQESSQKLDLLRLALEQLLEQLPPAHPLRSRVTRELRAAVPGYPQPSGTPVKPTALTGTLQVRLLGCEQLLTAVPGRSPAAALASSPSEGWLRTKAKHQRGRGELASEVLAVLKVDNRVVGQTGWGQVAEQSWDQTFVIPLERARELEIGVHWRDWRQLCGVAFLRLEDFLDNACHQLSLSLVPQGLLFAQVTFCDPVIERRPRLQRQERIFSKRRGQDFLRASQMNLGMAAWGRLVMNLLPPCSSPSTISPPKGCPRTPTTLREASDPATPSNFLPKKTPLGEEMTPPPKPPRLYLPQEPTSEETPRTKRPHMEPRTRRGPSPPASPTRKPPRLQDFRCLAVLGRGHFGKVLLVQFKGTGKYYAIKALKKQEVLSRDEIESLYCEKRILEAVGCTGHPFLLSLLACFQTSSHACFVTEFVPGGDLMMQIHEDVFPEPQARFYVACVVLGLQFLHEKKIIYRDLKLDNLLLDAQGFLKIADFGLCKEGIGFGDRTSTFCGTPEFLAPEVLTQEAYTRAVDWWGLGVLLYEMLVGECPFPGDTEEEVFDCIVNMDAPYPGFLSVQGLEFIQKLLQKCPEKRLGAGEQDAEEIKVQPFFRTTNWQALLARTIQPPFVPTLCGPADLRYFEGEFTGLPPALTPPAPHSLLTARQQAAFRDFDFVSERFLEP

Compound	inhibition at 1 µM (PRKCZ/PKCZ) [%]	inhibition at 1 µM (BRAF(V599E)) [%]	inhibition at 1 µM (PRKACB) [%]	inhibition at 1 µM (PKN3) [%]	inhibition at 1 µM (SYK) [%]	inhibition at 1 µM (LATS1) [%]	inhibition at 1 µM (CDK3/E1) [%]
C=CC(=O)N1CCCC(c2c(F)cc(C(N)=O)c3[nH]c4c(c23)CCCCC4)C1 (single isomer, unassigned) [Compound 5-6]	-4	-13.2	10.6	5.7	2.8	-24.7	-15.3
C=CC(=O)N1CCC[C@@H](c2c(F)cc(C(N)=O)c3[nH]c4c(c23)CC2(CC4)CC2)C1 [Compound 6-2, (S)-5-(1-acryloylpiperidin-3-yl)-6-fluoro-1,2,4,9-tetrahydrospiro[carbazole-3,1′-cyclopropane]-8-carboxamide]	8.5	-4.9	13.2	-9.4	-5.3	10.1	13.7
C=CC(=O)N1CCC[C@@H](c2c(F)cc(C(N)=O)c3[nH]c4c(c23)CCC4)C1 [Compound 10-2, (S)-8-(1-acryloylpiperidin-3-yl)-7-fluoro-1,2,3,4-tetrahydrocyclo-penta[b]indole-5-carboxamide]	-4.2	4.3	1.6	3.5	-14.1	22.9	-7.7
